In PubChem BioAssay (NCI):
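1) Cells in 96-well plates. 2) Compound, 48 h, 5 concentrations. 3) Linear interpolation between surrounding doses. 4) Unreached endpoint = highest concentration. TGI: total growth inhibition.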

Assays:
Test in all cases: NCI-60 cell line screen, 48 h
[1] = system: UO-31 renal
[2] = system: MDA-N
[3] = system: TK-10 renal
[4] = system: OVCAR-3 ovarian
[5] = system: K-562 leukemia
[6] = system: OVCAR-4 ovarian
[7] = system: MDA-MB-435
[8] = system: HOP-92 NSCLC
[9] = system: UACC-62 melanoma
[10] = system: IGROV1 ovarian
[11] = system: DU-145 prostate
[12] = system: HS 578T breast
[13] = system: HCC-2998 colon
[14] = system: M14 melanoma
[15] = system: COLO 205 colon
[16] = system: SK-OV-3 ovarian
[17] = system: RPMI-8226 leukemia
[18] = system: CCRF-CEM leukemia
[19] = system: T-47D breast
[20] = system: SF-268 CNS
[21] = system: SW-620 colon
[22] = system: SNB-19 CNS
[23] = system: 786-0 renal
[24] = system: LOX IMVI melanoma
[25] = system: HOP-62 NSCLC
[26] = system: HL-60(TB) leukemia
[27] = system: SK-MEL-28 melanoma
[28] = system: MDA-MB-231 breast
[29] = system: SK-MEL-2 melanoma
[30] = system: NCI-H460 lung
[31] = system: SF-295 CNS
[32] = system: RXF 393 renal
[33] = system: OVCAR-5 ovarian
[34] = system: MALME-3M melanoma
[35] = system: KM12 colon
[36] = system: SN12C renal
[37] = system: MCF7 breast
[38] = system: NCI-H522 lung
[39] = system: UACC-257 melanoma
[40] = system: A549 NSCLC
[41] = system: CAKI-1 renal
[42] = system: HT29 colon
[43] = system: NCI/ADR-RES ovarian
[44] = system: NCI-H23 lung
[45] = system: HCT-116 colon
[46] = system: OVCAR-8 ovarian
[47] = system: SF-539 CNS
[48] = system: U251 CNS
[49] = system: A498 renal
[50] = system: HCT-15 colon
[51] = system: ACHN renal
[52] = system: SK-MEL-5 melanoma
[53] = system: MOLT-4 leukemia
[54] = system: EKVX NSCLC
[55] = system: NCI-H226 lung
[56] = system: PC-3 prostate
[57] = system: SR leukemia
[58] = system: SNB-75 CNS

O=c1[nH]nc(-c2ccccc2)n1/N=C/c1c[nH]c2ccccc12
TGI [1]: > 100 µM
TGI [2]: > 100 µM
TGI [3]: 75.6 µM
TGI [4]: > 100 µM
TGI [5]: > 100 µM
TGI [6]: > 100 µM
TGI [7]: > 100 µM
TGI [8]: > 100 µM
TGI [9]: > 100 µM
TGI [10]: > 100 µM
TGI [11]: > 100 µM
TGI [12]: > 100 µM
TGI [13]: > 100 µM
TGI [14]: > 100 µM
TGI [15]: > 100 µM
TGI [16]: > 100 µM
TGI [17]: > 100 µM
TGI [18]: > 100 µM
TGI [19]: > 100 µM
TGI [20]: > 100 µM
TGI [21]: > 100 µM
TGI [22]: > 100 µM
TGI [23]: > 100 µM
TGI [24]: > 100 µM
TGI [25]: > 100 µM
TGI [26]: > 100 µM
TGI [27]: > 100 µM
TGI [28]: > 100 µM
TGI [29]: > 100 µM
TGI [30]: > 100 µM
TGI [31]: > 100 µM
TGI [32]: > 100 µM
TGI [33]: > 100 µM
TGI [34]: > 100 µM
TGI [35]: > 100 µM
TGI [36]: > 100 µM
TGI [37]: > 100 µM
TGI [38]: > 100 µM
TGI [39]: > 100 µM
TGI [40]: > 100 µM
TGI [41]: > 100 µM
TGI [42]: > 100 µM
TGI [43]: > 100 µM
TGI [44]: > 100 µM
TGI [45]: > 100 µM
TGI [46]: > 100 µM
TGI [47]: > 100 µM
TGI [48]: > 100 µM
TGI [49]: > 100 µM
TGI [50]: > 100 µM
TGI [51]: > 100 µM
TGI [52]: > 100 µM
TGI [53]: > 100 µM
TGI [54]: > 100 µM
TGI [55]: > 100 µM
TGI [56]: > 100 µM

C/C(=N/NC(=S)Nc1ccccc1Cl)c1cccc(/C(C)=N\NC(=S)Nc2ccccc2Cl)n1
TGI [1]: > 100 µM
TGI [2]: > 100 µM
TGI [3]: > 100 µM
TGI [4]: > 100 µM
TGI [5]: > 100 µM
TGI [6]: > 100 µM
TGI [7]: > 100 µM
TGI [8]: > 100 µM
TGI [9]: > 100 µM
TGI [10]: > 100 µM
TGI [11]: > 100 µM
TGI [12]: > 100 µM
TGI [13]: > 100 µM
TGI [14]: > 100 µM
TGI [15]: > 100 µM
TGI [57]: > 100 µM
TGI [16]: > 100 µM
TGI [17]: > 100 µM
TGI [18]: > 100 µM
TGI [19]: > 100 µM
TGI [20]: > 100 µM
TGI [21]: > 100 µM
TGI [22]: > 100 µM
TGI [23]: > 100 µM
TGI [24]: > 100 µM
TGI [25]: > 100 µM
TGI [26]: > 100 µM
TGI [27]: > 100 µM
TGI [28]: 75.2 µM
TGI [29]: > 100 µM
TGI [30]: > 100 µM
TGI [31]: > 100 µM
TGI [32]: > 100 µM
TGI [33]: > 100 µM
TGI [34]: > 100 µM
TGI [35]: > 100 µM
TGI [36]: > 100 µM
TGI [37]: 93.7 µM
TGI [38]: > 100 µM
TGI [39]: > 100 µM
TGI [40]: > 100 µM
TGI [58]: > 100 µM
TGI [41]: > 100 µM
TGI [42]: > 100 µM
TGI [43]: > 100 µM
TGI [44]: > 100 µM
TGI [45]: 49.4 µM
TGI [46]: 81.8 µM
TGI [47]: > 100 µM
TGI [48]: > 100 µM
TGI [49]: > 100 µM
TGI [50]: > 100 µM
TGI [51]: > 100 µM
TGI [52]: > 100 µM
TGI [53]: > 100 µM
TGI [54]: > 100 µM
TGI [55]: > 100 µM
TGI [56]: > 100 µM

O=C(Nc1cccc(C(F)(F)F)c1)O/N=C(/Cl)CCl
TGI [1]: > 100 µM
TGI [2]: > 100 µM
TGI [3]: > 100 µM
TGI [4]: > 100 µM
TGI [5]: > 100 µM
TGI [6]: > 100 µM
TGI [8]: 59.2 µM
TGI [10]: > 100 µM
TGI [11]: > 100 µM
TGI [12]: > 100 µM
TGI [13]: > 100 µM
TGI [14]: > 100 µM
TGI [15]: > 100 µM
TGI [57]: 62.8 µM
TGI [16]: > 100 µM
TGI [17]: 75.1 µM
TGI [18]: > 100 µM
TGI [19]: > 100 µM
TGI [20]: > 100 µM
TGI [21]: > 100 µM
TGI [22]: > 100 µM
TGI [23]: > 100 µM
TGI [24]: 69.9 µM
TGI [25]: > 100 µM
TGI [26]: 38.7 µM
TGI [27]: > 100 µM
TGI [28]: 39 µM
TGI [29]: > 100 µM
TGI [30]: > 100 µM
TGI [31]: > 100 µM
TGI [33]: 45.3 µM
TGI [34]: > 100 µM
TGI [35]: > 100 µM
TGI [36]: > 100 µM
TGI [37]: > 100 µM
TGI [39]: > 100 µM
TGI [40]: > 100 µM
TGI [58]: > 100 µM
TGI [41]: > 100 µM
TGI [42]: > 100 µM
TGI [43]: > 100 µM
TGI [44]: > 100 µM
TGI [45]: > 100 µM
TGI [46]: > 100 µM
TGI [47]: > 100 µM
TGI [48]: > 100 µM
TGI [49]: > 100 µM
TGI [50]: > 100 µM
TGI [51]: > 100 µM
TGI [52]: > 100 µM
TGI [53]: 79.6 µM
TGI [54]: > 100 µM
TGI [56]: > 100 µM
